Assays:
MGC-803 = experiment: Antiproliferative activity against human MGC803 cells after 48 hrs by MTT assay; assay type: functional, cell-based; details: MGC-803, 48 h
HepG2 = experiment: cells; details: Homo sapiens, HepG2, 48 h
HeLa = experiment: cells; details: Homo sapiens, 48 h

Compound	IC50 (MGC-803)	IC50 (HepG2)	IC50 (HeLa)
COc1cc(NC(=O)Nc2ccc(N3CCC(NC(=O)OC(C)(C)C)CC3)c(C(F)(F)F)c2)c2c(c1O)-c1c(OC)c(OC)cc3c1[C@H](C2)N(C)CC3	28.7 µM	25.9 µM	26.7 µM
COc1cc(NC(=O)Nc2ccc(F)cc2)c2c(c1OC(=O)Nc1ccc(F)cc1)-c1c(OC)c(OC)cc3c1[C@H](C2)N(C)CC3	25.1 µM	26.7 µM	26.8 µM
COc1cc(NC(=O)c2ccc(Cl)c(C(F)(F)F)c2)c2c(c1O)-c1c(OC)c(OC)cc3c1[C@H](C2)N(C)CC3	21.9 µM	21.5 µM	16.6 µM
COc1cc(NC(=O)c2cc(Cc3n[nH]c(=O)c4ccccc34)ccc2F)c2c(c1O)-c1c(OC)c(OC)cc3c1[C@H](C2)N(C)CC3	27.2 µM	30.2 µM	29.6 µM

From ChEMBL document CHEMBL4177667, “Design, synthesis, and anticancer properties of isocorydine derivatives” (Bioorg Med Chem, 2017)
